# Literature values, collected in US9328386B2, “Markers for susceptibility to an inhibitor of an Src-family kinase” (Evotec (München) GmbH, priority 2011, dated 2016).
# What was measured:
# [1] = target: YES (Homo sapiens, UniProt P07947); details: unit not given; cited from earlier work
# [2] = target: SRC (Homo sapiens, UniProt P12931); details: cited from earlier work
# [3] = target: LCK (Homo sapiens, UniProt P06239); details: cited from earlier work
# [4] = test system: VEGFR; details: cited from earlier work
# [5] = target: EGFR (Homo sapiens, UniProt P00533); details: cited from earlier work
# [6] = target: CSK (Homo sapiens, UniProt P41240); details: cited from earlier work
# [7] = target: FGFR1 (Homo sapiens, UniProt P11362); details: cited from earlier work
# [8] = test system: SFK; details: cited from earlier work
# [9] = target: MET (Homo sapiens, UniProt P08581); details: cited from earlier work
# CSK, sequence (P41240 whole entry, species assumed): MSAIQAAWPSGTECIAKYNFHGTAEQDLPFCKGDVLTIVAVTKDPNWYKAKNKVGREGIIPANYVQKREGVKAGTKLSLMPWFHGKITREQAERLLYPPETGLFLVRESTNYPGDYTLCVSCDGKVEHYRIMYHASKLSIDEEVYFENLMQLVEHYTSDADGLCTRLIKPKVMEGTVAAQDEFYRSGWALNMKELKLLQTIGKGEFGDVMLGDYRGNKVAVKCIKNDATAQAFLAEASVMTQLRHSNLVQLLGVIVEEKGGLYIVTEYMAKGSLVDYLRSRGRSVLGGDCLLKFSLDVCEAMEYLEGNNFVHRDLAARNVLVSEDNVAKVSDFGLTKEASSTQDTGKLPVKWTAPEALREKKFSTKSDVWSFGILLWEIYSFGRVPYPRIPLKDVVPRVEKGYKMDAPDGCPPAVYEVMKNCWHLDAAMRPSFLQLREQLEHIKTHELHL
# EGFR, sequence (P00533 25-1210, species assumed): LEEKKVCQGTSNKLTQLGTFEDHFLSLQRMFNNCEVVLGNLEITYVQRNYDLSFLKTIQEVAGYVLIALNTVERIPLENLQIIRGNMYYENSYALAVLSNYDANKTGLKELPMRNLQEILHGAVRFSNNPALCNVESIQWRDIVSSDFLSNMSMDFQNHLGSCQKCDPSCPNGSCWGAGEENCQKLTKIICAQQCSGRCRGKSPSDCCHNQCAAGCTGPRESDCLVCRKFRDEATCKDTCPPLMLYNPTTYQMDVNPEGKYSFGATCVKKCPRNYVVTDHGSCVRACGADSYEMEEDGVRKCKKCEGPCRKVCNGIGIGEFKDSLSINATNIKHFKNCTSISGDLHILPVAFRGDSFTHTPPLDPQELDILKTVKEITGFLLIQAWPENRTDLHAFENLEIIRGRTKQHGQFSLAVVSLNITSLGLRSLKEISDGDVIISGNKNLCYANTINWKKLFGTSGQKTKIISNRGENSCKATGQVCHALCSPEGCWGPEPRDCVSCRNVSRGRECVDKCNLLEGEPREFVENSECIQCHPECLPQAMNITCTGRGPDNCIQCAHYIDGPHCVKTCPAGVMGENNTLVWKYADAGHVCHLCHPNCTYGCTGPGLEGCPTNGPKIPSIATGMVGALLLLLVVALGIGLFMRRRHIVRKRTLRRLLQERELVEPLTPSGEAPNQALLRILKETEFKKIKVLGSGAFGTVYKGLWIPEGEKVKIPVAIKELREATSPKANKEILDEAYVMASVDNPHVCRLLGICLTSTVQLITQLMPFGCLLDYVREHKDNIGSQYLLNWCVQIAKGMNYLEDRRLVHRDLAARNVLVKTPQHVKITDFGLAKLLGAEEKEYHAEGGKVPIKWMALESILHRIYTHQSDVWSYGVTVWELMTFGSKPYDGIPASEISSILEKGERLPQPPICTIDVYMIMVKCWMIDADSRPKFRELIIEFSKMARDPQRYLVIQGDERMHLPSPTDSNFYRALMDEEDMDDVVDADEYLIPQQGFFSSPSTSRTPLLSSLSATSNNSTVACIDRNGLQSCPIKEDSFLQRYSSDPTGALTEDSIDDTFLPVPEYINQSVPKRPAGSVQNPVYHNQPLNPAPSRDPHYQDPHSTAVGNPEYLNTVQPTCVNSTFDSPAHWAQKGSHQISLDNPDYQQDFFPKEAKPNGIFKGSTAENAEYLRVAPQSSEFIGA
# YES, sequence (P07947 whole entry, species assumed): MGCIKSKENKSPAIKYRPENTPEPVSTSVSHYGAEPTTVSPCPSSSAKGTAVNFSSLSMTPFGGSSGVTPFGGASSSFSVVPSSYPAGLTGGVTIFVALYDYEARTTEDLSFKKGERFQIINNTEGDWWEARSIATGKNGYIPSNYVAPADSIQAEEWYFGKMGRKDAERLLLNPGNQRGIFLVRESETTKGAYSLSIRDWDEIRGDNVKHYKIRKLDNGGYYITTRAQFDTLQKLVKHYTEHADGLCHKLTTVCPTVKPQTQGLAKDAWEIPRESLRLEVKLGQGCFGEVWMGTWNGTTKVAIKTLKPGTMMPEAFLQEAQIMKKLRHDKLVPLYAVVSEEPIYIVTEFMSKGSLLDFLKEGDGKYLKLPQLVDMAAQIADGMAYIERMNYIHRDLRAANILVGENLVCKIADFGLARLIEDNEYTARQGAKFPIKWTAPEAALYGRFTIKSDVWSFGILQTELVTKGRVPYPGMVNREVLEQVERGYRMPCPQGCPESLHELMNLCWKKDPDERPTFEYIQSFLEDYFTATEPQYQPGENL
# FGFR1, sequence (P11362 22-822, species assumed): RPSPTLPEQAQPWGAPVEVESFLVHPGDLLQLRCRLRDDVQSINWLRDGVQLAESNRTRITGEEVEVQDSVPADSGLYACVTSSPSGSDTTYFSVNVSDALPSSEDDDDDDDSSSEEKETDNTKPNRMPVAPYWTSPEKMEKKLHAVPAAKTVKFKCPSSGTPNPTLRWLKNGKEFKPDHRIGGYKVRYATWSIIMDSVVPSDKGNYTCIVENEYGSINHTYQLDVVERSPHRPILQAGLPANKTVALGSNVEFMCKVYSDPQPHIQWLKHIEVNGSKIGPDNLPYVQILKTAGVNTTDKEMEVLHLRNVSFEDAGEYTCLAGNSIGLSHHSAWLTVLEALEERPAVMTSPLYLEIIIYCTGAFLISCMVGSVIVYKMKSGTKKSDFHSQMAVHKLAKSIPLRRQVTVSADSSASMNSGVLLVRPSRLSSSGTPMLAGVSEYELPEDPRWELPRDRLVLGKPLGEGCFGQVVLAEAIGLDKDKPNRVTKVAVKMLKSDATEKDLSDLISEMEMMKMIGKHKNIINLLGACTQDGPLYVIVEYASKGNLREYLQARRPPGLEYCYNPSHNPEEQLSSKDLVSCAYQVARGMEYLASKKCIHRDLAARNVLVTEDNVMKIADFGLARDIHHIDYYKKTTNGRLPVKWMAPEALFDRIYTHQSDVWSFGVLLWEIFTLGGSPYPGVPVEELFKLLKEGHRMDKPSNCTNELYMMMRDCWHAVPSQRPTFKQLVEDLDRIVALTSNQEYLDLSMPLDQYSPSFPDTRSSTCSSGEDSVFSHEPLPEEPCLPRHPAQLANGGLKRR
# SRC, sequence (P12931 whole entry, species assumed): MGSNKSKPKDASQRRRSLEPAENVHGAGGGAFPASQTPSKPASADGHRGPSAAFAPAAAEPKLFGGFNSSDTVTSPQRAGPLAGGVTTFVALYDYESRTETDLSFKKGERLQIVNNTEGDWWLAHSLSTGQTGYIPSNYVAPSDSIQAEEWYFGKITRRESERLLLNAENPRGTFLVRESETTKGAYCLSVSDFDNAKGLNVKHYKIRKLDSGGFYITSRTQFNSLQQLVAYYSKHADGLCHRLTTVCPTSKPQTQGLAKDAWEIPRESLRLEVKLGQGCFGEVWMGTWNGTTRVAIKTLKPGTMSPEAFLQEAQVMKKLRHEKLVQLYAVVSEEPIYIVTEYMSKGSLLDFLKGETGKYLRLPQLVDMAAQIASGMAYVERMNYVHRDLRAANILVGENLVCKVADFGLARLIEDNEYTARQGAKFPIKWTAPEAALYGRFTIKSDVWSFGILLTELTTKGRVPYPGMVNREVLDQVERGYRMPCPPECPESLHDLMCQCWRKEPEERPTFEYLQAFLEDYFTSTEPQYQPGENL
# LCK, sequence (P06239 whole entry, species assumed): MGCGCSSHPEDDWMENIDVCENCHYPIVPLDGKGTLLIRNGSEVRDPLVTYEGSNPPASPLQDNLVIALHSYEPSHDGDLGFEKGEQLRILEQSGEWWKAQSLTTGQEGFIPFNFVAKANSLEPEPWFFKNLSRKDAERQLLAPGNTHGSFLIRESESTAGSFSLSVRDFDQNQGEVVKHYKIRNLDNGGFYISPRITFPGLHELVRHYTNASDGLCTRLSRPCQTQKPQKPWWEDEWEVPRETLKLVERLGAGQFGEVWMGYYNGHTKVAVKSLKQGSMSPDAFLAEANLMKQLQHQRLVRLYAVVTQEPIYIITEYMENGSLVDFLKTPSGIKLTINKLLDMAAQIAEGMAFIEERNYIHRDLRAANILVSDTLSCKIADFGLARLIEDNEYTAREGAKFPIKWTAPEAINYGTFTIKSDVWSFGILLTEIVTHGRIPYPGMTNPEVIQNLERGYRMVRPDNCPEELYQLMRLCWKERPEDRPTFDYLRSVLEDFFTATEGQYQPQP
Structure (SMILES),Affinities (basic outline) [1],Affinities (basic outline) [2] [nM],Affinities (basic outline) [3] [nM],Affinities (basic outline) [4] [nM],Affinities (basic outline) [5] [nM],Affinities (basic outline) [6] [µM],Affinities (basic outline) [7] [µM],Affinities (basic outline) [8] [nM],Affinities (basic outline) [9] [nM]
"COc1ccc(Cl)c(Nc2ncnc3cc(OCC4CCN(C)CC4)c(OC)cc23)c1 [M475271, 4-quinazolinamine, N-(2-chloro-5-methoxyphenyl)-6-methoxy-7-[(1-methyl-4-piperidinyl)methoxy]-(9Cl)]",10,25,200,500,600,7.6,20,,
"CN(C)S(=O)(=O)c1ccc2c(c1)/C(=C/c1cc3c([nH]1)CCCC3)C(=O)N2 [SU6656, (2-oxo-3-(4,5,6,7-tetrahydro-1H-indol-2-ylmethylene)-2,3-dihydro-1H-indole-5-sulfonic acid dimethylamide)]",,,,,,0.007,,0.02 to 6.88,3
